Test [1] has as its system Human Melanoma Carcinoma Lox. The settings on record: staged LOX xenograft; at MTD ('<': MTD not achieved); days 11-15. The method, then:
2.4. Growth of Tumors in Nude Mice. […] In these experiments, xenografts are implanted subcutaneously into the flanks of nude mice. […] Relative tumor mass compared to controls are assessed during the 21-day post-staging period.
Groups of 5 female nu/nu mice are injected with 1.5×10^6 KB-3-1 (A) or Lox cells (B). […] Relative tumor growth is determined during the experiment and % T/C calculated. Statistical analyses are Student's t-test of treated time points vs. vehicle (*, P<0.05; **, P<0.01)

In a further test the test system is KB-8-5 (MDR1+). As to the kind of experiment: Cell survival assay (SRB), KB-8-5 (MDR1+). The settings on record: for IC50: Homo sapiens, MDR1, read-out: In vitro IC50 (nM) KB85.
The test system of a further test is KB-V1 (MDR1++). The test is described as follows: Cell survival assay (SRB), KB-V1 (MDR1++). The note with it: for IC50: Homo sapiens, read-out: In vitro IC50 (nM) KBV1.
The test system of a further test is KB-3-1. As to the kind of experiment: Cell survival assay (SRB), KB-3-1. It counts as cell-based, human. The note with it: Homo sapiens. An outline of the steps: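 Growth inhibition (IC50) is derived from SRB-measured protein content after a 3-day, duplicate exposure to serially diluted compound.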
The mark [2] stands for this setting: KB 3-1, 72 h, amount of drug needed to kill 50% of cells after three days continuous exposure, Table 11, read-out: IC50 in parental cell line KB-3-1.
Where [3] appears, read: KB 3-1, KB-3-1 cells (paclitaxel-sensitive parent), read-out: In vitro IC50 (nM) KB-3-1.

Where two headings read alike, the source gives them in different places. Where only a bound is given, the exact number is not on record here.

Broadly, the IC50 is the midpoint of a concentration-inhibition curve. On to `CN[C@@H](C(=O)N[C@H](C(=O)N(C)[C@H](/C=C(\C)C(=O)O)C(C)C)C(C)(C)C)C(C)(C)c1cc(F)cc(F)c1` [Example 65, 3,5-Difluoro-N,β,β-trimethyl-D-phenylalanyl-N^1-[(1S,2E)-3-carboxy-1-isopropylbut-2-enyl]-N^1,3-dimethyl-L-valinamide], for which the “Activity in nude mice animal model (% T/C @ MTD on days 11-15) LOX” value (from here on “Activity … (% T/C @ MTD on days 11-15) LOX”) in test [1] is on record as 8%. For the same compound, the “Ratio KB85/KB” value in the test on KB-8-5 (MDR1+) came out at 1.5. In addition, the IC50 in the test with KB-8-5 (MDR1+) was 2.9 nM; in the test on KB-V1 (MDR1++) it was 77.6 nM; in the test with KB-3-1 (setting [2]), 2 nM; with KB-3-1 (setting [3]) it was 2 nM. In addition, in the test on KB-V1 (MDR1++), the “Ratio KBV1/KB” value is reported as 38.8.
On to `CN[C@H](C(=O)N[C@H](C(=O)N(C)[C@H](C[C@@H](C)C(=O)O)C(C)C)C(C)(C)C)C(C)(C)c1ccccc1` [Example 124, N,β,β-trimethyl-L-phenylalanyl-N^1-[(1R,3R)-3-carboxy-1-isopropylbutyl]-N^1,3-dimethyl-L-valinamide], for which the “Activity … (% T/C @ MTD on days 11-15) LOX” value in test [1] is reported as 62%. Also, the “Ratio KB85/KB” value in the test with KB-8-5 (MDR1+) is listed as 2.2. In addition, the IC50 with KB-8-5 (MDR1+) stood at 18.9 nM; in the test on KB-V1 (MDR1++), 1320 nM; with KB-3-1 (setting [2]), 8.6 nM; in the test with KB-3-1 (setting [3]), 8.6 nM. In addition, the “Ratio KBV1/KB” value with KB-V1 (MDR1++) is 153.0.
For `CN[C@H](C(=O)N[C@H](C(=O)N(C)[C@H](/C=C(\C)C(=O)O)C(C)C)C(C)(C)C)C(C)(C)c1cccc(C(F)(F)F)c1` [Example 62, N,β,β-Trimethyl-3-(trifluoromethyl)-L-phenylalanyl-N^1-[(1S,2E)-3-carboxy-1-isopropyl-2-butenyl]-N^1,3-dimethyl-L-valinamide], the “Activity … (% T/C @ MTD on days 11-15) LOX” value in test [1] is on record as 2%. Besides, the “Ratio KB85/KB” value in the test on KB-8-5 (MDR1+) came out at 2.6. Also, the IC50 in the test with KB-8-5 (MDR1+) is 1.7 nM; in the test with KB-V1 (MDR1++), 42.7 nM; with KB-3-1 (setting [2]), 0.7 nM; in the test with KB-3-1 (setting [3]), 0.647 nM. For the same compound, in the test on KB-V1 (MDR1++), the “Ratio KBV1/KB” value stood at 66.0.
For the compound `CN[C@H](C(=O)N[C@H](C(=O)N(C)[C@H](/C=C(\C)C(=O)O)C(C)C)C(C)(C)C)C(C)(C)c1cccc(Cl)c1` [Example 2, 3-Chloro-N,β,β-trimethyl-L-phenylalanyl-N^1-[(1S,2E)-3-carboxy-1-isopropyl-2-butenyl]-N^1,3-dimethyl-L-valinamide], in test [1], the “Activity … (% T/C @ MTD on days 11-15) LOX” value was found to be 9%. In the test on KB-8-5 (MDR1+), the “Ratio KB85/KB” value turned out to be 2.8. The IC50 in the test on KB-8-5 (MDR1+) was determined as 3.2 nM; in the test on KB-V1 (MDR1++) it was 91 nM; in the test with KB-3-1 (setting [2]), 1.1 nM; in the test with KB-3-1 (setting [3]) it was 1.14 nM. In addition, the “Ratio KBV1/KB” value with KB-V1 (MDR1++) was found to be 80.0.
Take `CC/C(=C\[C@H](C(C)C)N(C)C(=O)[C@@H](NC(=O)[C@@H](NC)C(C)(C)c1ccccc1)C(C)(C)C)C(=O)O` [Example 78, N,β,β-Trimethyl-L-phenylalanyl-N^1-[(1S,2E)-3-carboxy-1-isopropyl-2-pentenyl]-N 1,3-dimethyl-L-valinamide]: the “Activity … (% T/C @ MTD on days 11-15) LOX” value in test [1] came to 17%. Besides, the “Ratio KB85/KB” value with KB-8-5 (MDR1+) is reported as 2.5. Besides, the IC50 turned out to be 13.7 nM with KB-8-5 (MDR1+), 512 nM in the test on KB-V1 (MDR1++), 5.4 nM in the test with KB-3-1 (setting [2]) and 5.4 nM with KB-3-1 (setting [3]). Moreover, in the test on KB-V1 (MDR1++), the “Ratio KBV1/KB” value was determined as 94.9.
Consider `CN[C@H](C(=O)N[C@H](C(=O)N(C)[C@H](/C=C(\C)C(=O)O)C(C)C)C(C)(C)SC)C(C)(C)c1ccccc1` [Example 80, (E,4S)-2,5-dimethyl-4-{methyl[(2R)-3-methyl-2-{[(2S)-3-methyl-2-(methylamino)-3-phenylbutanoyl]amino}-3-(methylsulfanyl)butanoyl]amino}-2-hexenoic Acid], for which the “Activity … (% T/C @ MTD on days 11-15) LOX” value in test [1] was 8^4%. For the same compound, the “Ratio KB85/KB” value in the test with KB-8-5 (MDR1+) was determined as 2.6. The IC50 came to 7.1 nM with KB-8-5 (MDR1+), 303 nM in the test on KB-V1 (MDR1++), 2.7 nM in the test with KB-3-1 (setting [2]) and 2.7 nM in the test with KB-3-1 (setting [3]). In addition, the “Ratio KBV1/KB” value in the test on KB-V1 (MDR1++) is on record as 112.2.
`C/C(=C\[C@H](C(C)C)N(C)C(=O)[C@@H](NC(=O)[C@@H](N(C)C)C(C)(C)c1ccccc1)C(C)(C)C)C(=O)O` [Example 52, N,N,β, β-Tetramethyl-L-phenylalanyl-N^1-[(1S,2E)-3-carboxy-1-isopropyl-2-butenyl]-N^1,3-dimethyl-L-valinamide]: in test [1], the “Activity … (% T/C @ MTD on days 11-15) LOX” value is reported as 1%. Also, the “Ratio KB85/KB” value with KB-8-5 (MDR1+) was 2.4. The IC50 in the test with KB-8-5 (MDR1+) was 3.7 nM; in the test with KB-V1 (MDR1++) it was 116 nM; in the test with KB-3-1 (setting [2]), 1.6 nM; in the test on KB-3-1 (setting [3]), 1.55 nM. Also, in the test with KB-V1 (MDR1++), the “Ratio KBV1/KB” value amounted to 74.6.
Take `CC[C@H](C)[C@H](NC(=O)[C@@H](NC)C(C)(C)c1ccccc1)C(=O)N(C)[C@H](/C=C(\C)C(=O)O)C(C)C.O=C(O)C(F)(F)F` [Example 106, N,β,β-trimethyl-L-phenylalanyl-N^1-[(1S,2E)-3-carboxy-1-isopropyl-2-butenyl]-N^1-methyl-L-isoleucinamide Trifluoroacetic Acid]: in test [1], the “Activity … (% T/C @ MTD on days 11-15) LOX” value is recorded as <47^4%. For the same compound, the “Ratio KB85/KB” value in the test on KB-8-5 (MDR1+) came out at 2.2. In addition, the IC50 came out at 34 nM in the test on KB-8-5 (MDR1+), 660 nM in the test with KB-V1 (MDR1++), 15.6 nM in the test on KB-3-1 (setting [2]) and 16 nM in the test on KB-3-1 (setting [3]). Besides, the “Ratio KBV1/KB” value in the test with KB-V1 (MDR1++) was 42.3.
As for `CCOC(=O)/C(C)=C/[C@H](C(C)C)N(C)C(=O)[C@@H](NC(=O)[C@@H](NC)C(C)(C)c1ccccc1)C(C)(C)C` [Example 133, Ethyl (E,4S)4-[((2S)-3,3-dimethyl-2-{[(2S)-3-methyl-2-(methylamino)-3-phenylbutanoyl]amino}butanoyl)(methyl)amino]-2,5-dimethyl-2-hexenoate], in test [1], the “Activity … (% T/C @ MTD on days 11-15) LOX” value is listed as 1%. Moreover, the “Ratio KB85/KB” value in the test with KB-8-5 (MDR1+) was 14.5. For the same compound, the IC50 in the test on KB-8-5 (MDR1+) stood at 499 nM; in the test with KB-V1 (MDR1++), 1870 nM; in the test with KB-3-1 (setting [2]), 34 nM; in the test on KB-3-1 (setting [3]), 34 nM. Further, the “Ratio KBV1/KB” value in the test on KB-V1 (MDR1++) is given as 54.5.
As for `CN[C@H](C(=O)N[C@H](C(=O)N(C)[C@H](/C=C(\C)C(=O)O)C(C)C)C(C)(C)C)C(C)(C)c1ccc(C)c(C)c1` [Example 14, N,β,β,3,4-Pentamethyl-L-phenylalanyl-N^1-[(1S,2E)-3-carboxy-1-isopropyl-2-butenyl]-N^1,3-dimethyl-L-valinamide], in test [1], the “Activity … (% T/C @ MTD on days 11-15) LOX” value came to 2%. Moreover, in the test with KB-8-5 (MDR1+), the “Ratio KB85/KB” value is on record as 2.8. The IC50 is 1.13 nM in the test on KB-8-5 (MDR1+), 39 nM in the test on KB-V1 (MDR1++), 0.4 nM with KB-3-1 (setting [2]) and 0.408 nM in the test with KB-3-1 (setting [3]). The “Ratio KBV1/KB” value in the test with KB-V1 (MDR1++) came out at 95.6.
As to `CN[C@H](C(=O)N[C@H](C(=O)N(C)[C@H](/C=C(\C)C(=O)O)C(C)C)C(C)(C)C)C(C)(C)c1ccc(OC)cc1` [Example 57, N,O,β,β-tetramethyl-L-tyrosyl-N^1-[(1S,2E)-3-carboxy-1-isopropyl-2-butenyl]-N^1,3-dimethyl-L-valinamide], the “Activity … (% T/C @ MTD on days 11-15) LOX” value in test [1] is reported as <1^4%. The “Ratio KB85/KB” value in the test with KB-8-5 (MDR1+) was determined as 2.9. Besides, the IC50 in the test with KB-8-5 (MDR1+) amounted to 4.1 nM; with KB-V1 (MDR1++), 142 nM; in the test with KB-3-1 (setting [2]), 1.4 nM; in the test with KB-3-1 (setting [3]) it was 1.4 nM. The “Ratio KBV1/KB” value with KB-V1 (MDR1++) worked out at 102.0.
`CN[C@H](C(=O)N[C@H](C(=O)N(C)[C@H](/C=C(\C)C(=O)O)C(C)C)C(C)(C)C)C(C)(C)C1CCCCC1` [Example 70, 3-Cyclohexyl-N-methyl-L-valyl-N-1-[(1S,2E)-3-carboxy-1-isopropyl-2-butenyl]-N-1,3-dimethyl-L-valinamide]: in test [1], the “Activity … (% T/C @ MTD on days 11-15) LOX” value worked out at 4%. Besides, the “Ratio KB85/KB” value in the test with KB-8-5 (MDR1+) turned out to be 1.5. The IC50 with KB-8-5 (MDR1+) came to 5.6 nM; in the test with KB-V1 (MDR1++) it was 151 nM; in the test with KB-3-1 (setting [2]) it was 3.7 nM; with KB-3-1 (setting [3]) it was 3.7 nM. For the same compound, the “Ratio KBV1/KB” value in the test with KB-V1 (MDR1++) is recorded as 40.9.
Take `CN[C@H](C(=O)N[C@H](C(=O)N(C)[C@H](/C=C(\C)C(=O)O)C(C)C)C(C)(C)C)C(C)(C)c1cccs1` [Example 20, N-Methyl-3-(2-thienyl)-L-valyl-N^1-[(1S,2E)-3-carboxy-1-isopropyl-2-butenyl]-N^1,3-dimethyl-L-valinamide]: the “Activity … (% T/C @ MTD on days 11-15) LOX” value in test [1] was found to be 3%. Besides, the “Ratio KB85/KB” value in the test on KB-8-5 (MDR1+) is 2.0. The IC50 was 3.9 nM in the test on KB-8-5 (MDR1+), 162 nM in the test with KB-V1 (MDR1++), 2 nM in the test with KB-3-1 (setting [2]) and 2 nM with KB-3-1 (setting [3]). Further, in the test with KB-V1 (MDR1++), the “Ratio KBV1/KB” value is on record as 80.9.

The values are drawn from US20040121965A1, “Method of treating resistant tumors” (Wyeth Holdings Corporation, priority 2002, published 2004).
